Measured values published in patent publication US4055640A, “Compositions and methods for controlling the growth of bacteria, fungi and algae using certain derivatives of N-(2,2-dichlorovinyl)salicylamides” (Nippon Kayaku Co., Ltd., priority 1975, dated 1977).

Columns and labels:
[1] = system: seedling blight of rice plant (pathogen Fusarium sp. and Rhizoctonia sp.); assay: Exterminating test on seedling blight of rice plant (Experimental Example 1); format: in vivo; settings: soil, 408 h, 0.25g/box a.i., 5% dust mixed with soil; read-out: Percentage of healthy seedlings
Procedure: Exterminating test on seedling blight of rice plant Nursery boxes (60 × 30 × 3 cm) were filled with soil which were contaminated with pathogen (Fusarium sp. and Rhizoctonia sp.) The dust in which the present compound was contained in a ratio of 5% by weight was added in the box in a ratio of 5 grams per box and mixed well with soil. Thereafter, seeds of rice plant (variety: Nihonbare) were sowed in drills at a rate of 0.3 liter per box and grown up in a lighting chamber at 17° C. After 7 days from the sowing, the boxes were carried out in the field. Furthermore, 10 days thereafter the observations were made. Four percent (4%) dust of 3-hydroxy-5-methyl isoxazol (hereinafter referred to as hydroxyisoxazol) on the market was used as a control and tested by the same method. The test results are shown in Table 2 with a "percentage of healthy seedlings". The percentage of healthy seedlings was calculated as follows: […]

[2] = system: Cladosporium cucumerinum (cucumber scab); assay: Exterminating test on cucumber scab (Experimental Example 2); format: in vivo; design: scale not given here; settings: 500 ppm, 5 days after inoculation
Procedure: Exterminating test on cucumber scab
(§1) The cucumber seeds (variety: Sagamihanjiro) were sown in pots (diameter 18 cm). Eighty percent (80%) wettable powder (contents of active compound: 80%) of the present invention was diluted with water to obtain a suspension. The suspension was sprayed over the cucumber seedlings of the stage of 3-4 leaves in an amount of 20 ml per pot. After 24 hours, these pots were inoculated by means of spray of spore suspension of Cladosporium cucumerinum. The thus-inoculated seedlings were placed in a moist chamber at 20° C for 24 hours. The pots were continuously kept in a greenhouse at 20° C. The following wettable powders on the market were used as controls.
70% wettable powder of 1,2-bis (3-methoxy carbonyl-2-thioureid) benzene (hereinafter referred to as "thiophanate methyl") on the market.
75% wettable powder of ethylene bis (dithiocarbamic acid) manganese (hereinafter referred to as "maneb") on the market. After 5 days of the inoculation, degrees attached by the pathogen were observed and the results were shown in Table 3 with an "Infected Index". The "Infected Index" was calculated as follows: [formula] A : Number of leaves which were killed by hard attack B : Number of leaves severely attacked
C : number of leaves slightly attacked
D : number of healthy leaves

[3] = system: cucumber seedlings (variety: Sagamihanjiro); assay: Phytotoxicity on cucumber seedlings (Experimental Example 2); format: in vivo; settings: 500 ppm
Procedure: as §1

[4] = system: botrytis cinerea (gray mold); assay: Exterminating test on gray mold of tomato (Experimental Example 5); format: in vivo; design: scale not given here; settings: 1,000 ppm, 48 hours after inoculation, kidney bean leaves
Procedure: Exterminating test on gray mold of tomato The seedlings of kidney beans (variety: Orient) of 5-6 leaves stage were employed in this test. Eighty percent (80%) wettable powder of the present invention was diluted with water and sprayed over the seedlings in an amount of 10 ml per pot. The leaves were cut from the plant at 24 hours after spraying, and placed in the petri dishes (12 cm in diameter). Thereafter disks (5 mm in diameter) were cut with a cork borer from potato dextrose agar on which the pathogen (botrytis cinerea) was cultured. The disks were placed on the leaves. The dishes were placed in such a moistural condition as to cause the pathogen to propagate. Thiophanate methyl 70% wettable powder on the market was used as a control and tested by the same method. After forty eight (48) hours after inoculation, diameters of the lesions were observed, and an "Effect Index" was calculated as follows; [formula]

[5] = system: seedlings of kidney beans (variety: Orient); assay: Phytotoxicity on kidney beans (Experimental Example 5); format: in vivo; settings: 1,000 ppm
summer orange seedlings = assay: Phytotoxicity on summer orange seedlings (Experimental Example 6); format: in vivo; settings: 1,000 ppm
Procedure: (§2) Exterminating test on citrus canker. 4-year-old summer orange seedlings, planted in unglazed pots having a diameter of 20 cm, were employed in this test. Eighty percent (80%) wettable powder of the present invention was diluted with water, and sprayed over the seedlings in an amount of 50 ml per pot. The leaves of the seedlings were inoculated Xanthomonas citri by means of a needle. After the inoculation, the seedlings were maintained in a moist chamber at 25° C for 24 hours. Then the pots were transferred into the greenhouse. Streptomycin 20% wettable powder was used as a control, and tested by the same method. After 2 weeks after the inoculation, degrees of disease attack were observed, and an "Effect Index" was calculated as follows: [formula]

[6] = system: Aspergillus niger, Penicillium citrinum, Cladosporium harbarum and chaetomium globosum; assay: Degree of growth inhibition of fungi on treated beach plates (Example 25); format: cell-based; design: scale not given here; settings: numerical rating, 2 weeks
Procedure: The emulsifiable concentrates which were prepared by Example 20 were diluted with water 400 times and 800 times to form emulsions.
The square plates of beach of which a side was 5 cm long and thickness was 5 mm were dipped into the emulsion for 2 minutes and dried for 24 hours at room temperature.
The square plates were placed on the surface of agar plates. The suspensions which contained spores of Aspergillus niger, Penicillium citrinum, Cladosporium harbarum and chaetomium globosum were respectively sprayed on the agar plates and the square plates.
The test fungi were cultivated in the incubator at the humidity of 95% and the temperature of 28° C for 2 weeks. The degree of growth inhibition is defined in terms of the following numerical ratings.

Aspergillus niger = assay: Region of growth-inhibition around treated cotton cloth (Example 26); format: cell-based; settings: emulsifiable concentrate diluted 100 times
Procedure: (§3) The emulsifiable concentrates which were prepared by Example 20 were diluted with water 100 times to form an emulsion. A cloth of cotton was soaked into each emulsion for 2 minutes. The clothes were dried at room temperature and cut into a square of which a side was 1 cm long. Each kind of test bacteria and fungi was inoculated, separately, on plates of potato-agar and one square cloth placed on each of such plates. Test bacteria and fungi were cultivated at 28° C for 4 days. The width of the region of growth-inhibition which was formed a circumference of the cloth was measured.

Bacillus subtilis = assay: as above; format: cell-based; settings: emulsifiable concentrate diluted 100 times
Procedure: as §3

Penicillium Citrinum = assay: as above; format: cell-based; settings: emulsifiable concentrate diluted 100 times
Procedure: as §3

Staphylococcus oureus = assay: as above; format: cell-based; settings: emulsifiable concentrate diluted 100 times
Procedure: as §3

[7] = system: bacteria gathered from circular water system; assay: Degree of propagation on slime test boards (Example 27); format: cell-based; settings: shaking culture for 2 days
Procedure: (§4) Zero point zero two (0.02) part of active compounds in the form of 10% water soluble concentrate which was prepared by Example 23 was added into 100 parts of Waxman's liquid medium. Peices of Wood iron (hereafter referred to as the slime test boards) were soaked into the Waxman's liquid medium. The bacteria which were gathered from circular water system were inoculated upon the Waxman's liquid medium and incubated at 27°-34° C by shaking culture for 2 days. The degree of propagation of the bacteria on the slime test boards was examined.
(§5) Thegrowth-inhibiting activity of active compounds against the fungi and the green algae was also examined by the same method as mentioned above.
(§6) The degree of propagation of the bacteria, fungi or green algae on the test boards is defined in terms of the following symbols.

fungi = assay: as above; format: cell-based; settings: same method, shaking culture for 2 days
Procedure: as §4, §5, §6

green algae = assay: as above; format: cell-based; settings: same method, shaking culture for 2 days
Procedure: as §4, §5, §6

[8] = system: Fusarium wilt of cucumber; assay: Exterminating test on Fusarium wilt of cucumber (Experimental Example 4); format: in vivo, Fusarium oxysporum f, cucumerinum; settings: Fusarium, soil, 336 h, 500 ppm, soil drench 100 ml per pot, two weeks; read-out: Percentage of healthy seedlings
Procedure: Exterminating test on Fusarium wilt of cucumber Twenty (20) grams of infected soil was added uniformly into each pot which was filled with steam sterilized field soil, then 18 seeds of cucumber (variety; Tokiwazibai) were sowed in each pot. Eighty percent (80%) wettable powder of the present invention was diluted with water to obtain a suspension, and each pot was drenched with the suspension in an amount of 100 ml. Fifty percent (50%) wettable powder of methyl-1-(butylcarbamoyl) 2-benzimidazol carbamate (hereinafter referred to as Benlate) on the market was used as a control and tested by the same method. After two weeks of planting, degrees attacked by the pathogen was observed and a "percentage of healthy seedlings" was calculated as follows: [formula]

[9] = system: Rhizoctonia solani (damping-off of cucumber); assay: Exterminating test on damping-off of cucumber (Experimental Example 3); format: in vivo; settings: Rhizoctonia solani, soil, 240 h, 1,000 ppm, soil drench 50 ml per pot, 10 days; read-out: Percentage of healthy seedlings
Procedure: Exterminating test on damping-off of cucumber
The pots (diameter, 12 cm) were filled with field soil and then soil infected by adding Rhizoctonia solani in an amount of 5 grams per pot uniformly into the pots. Thereafter, 10 seeds of cucumber (variety: Azumamidori) were sown in each pot.
Eighty percent (80%) wettable powder of the present invention was diluted with water to obtain a suspension and each pot was drenched with the suspension in an amount of 50 milliliters. Then, the pots were transferred to the greenhouse. Fifty percent (50%) wettable powder of pentachloronitro benzene (hereinafter referred to as PCNB) on the market was used as a control and tested by the same method. After 10 days of the inoculation, degrees attacked by the pathogen were observed and a "Percentage of healthy seedlings" was calculated. The "Percentage of healthy seedlings" was calculated as follows: [formula]

[10] = system: Xanthomonas citri (citrus canker); assay: Exterminating test on citrus canker (Experimental Example 6); format: in vivo; settings: Xanthomonas citri, 336 h, read-out: Effect Index, 1,000 ppm, 2 weeks after inoculation
Procedure: as §2

## O=C(NC=C(Cl)Cl)c1cc(Cl)ccc1O [Compound No. 2, N-(2',2'-dichlorovinyl)-5-chlorosalicylamide]
[1]
  Percentage of healthy seedlings at 0.25 g/box: 72.4%
[2]
  Infected Index: 11.0
[3]
  Phytotoxicity: Nil
[4]
  Effect Index: 79
[5]
  Phytotoxicity: Nil
Summer orange seedlings
  Phytotoxicity: Nil
[6]; 0.0125 %
  Degree of growth inhibition: 2
[6]; 0.025 %
  Degree of growth inhibition: 3
Aspergillus niger
  width of the region of growth-inhibition: 5 mm
Bacillus subtilis
  width of the region of growth-inhibition: 9 mm
Penicillium Citrinum
  width of the region of growth-inhibition: 5 mm
Staphylococcus oureus
  width of the region of growth-inhibition: 10 mm
[7]
  Degree of propagation: -
fungi
  Degree of propagation: -
Green algae
  Degree of propagation: -

## CC(=O)Oc1ccc(Cl)cc1C(=O)NC=C(Cl)Cl [Compound No. 7, O-acetyl-N-(2',2'-dichlorovinyl)-5-chlorosalicylamide]
[1]
  Percentage of healthy seedlings at 0.25 g/box: 70.2%
[8]
  pest or weed control at 500 ppm: 76.5%
[6]; 0.0125 %
  Degree of growth inhibition: 5
[6]; 0.025 %
  Degree of growth inhibition: 5
Aspergillus niger
  width of the region of growth-inhibition: 10 mm
Bacillus subtilis
  width of the region of growth-inhibition: 12 mm
Penicillium Citrinum
  width of the region of growth-inhibition: 10 mm
Staphylococcus oureus
  width of the region of growth-inhibition: 11 mm
[7]
  Degree of propagation: -
fungi
  Degree of propagation: -
Green algae
  Degree of propagation: -

## CCC(=O)Oc1ccccc1C(=O)NC=C(Cl)Cl [Compound No. 9]
[1]
  Percentage of healthy seedlings at 0.25 g/box: 69.8%
[9]
  pest or weed control at 1000 ppm: 90%
[8]
  pest or weed control at 500 ppm: 75%
[6]; 0.0125 %
  Degree of growth inhibition: 3
[6]; 0.025 %
  Degree of growth inhibition: 3
Aspergillus niger
  width of the region of growth-inhibition: 6 mm
Bacillus subtilis
  width of the region of growth-inhibition: 9 mm
Penicillium Citrinum
  width of the region of growth-inhibition: 6 mm
Staphylococcus oureus
  width of the region of growth-inhibition: 7 mm
[7]
  Degree of propagation: -
fungi
  Degree of propagation: -
Green algae
  Degree of propagation: -

## CCCC(=O)Oc1ccccc1C(=O)NC=C(Cl)Cl [compound 10]
[1]
  Percentage of healthy seedlings at 0.25 g/box: 72.1%
[9]
  pest or weed control at 1000 ppm: 100%
[8]
  pest or weed control at 500 ppm: 70%
[4]
  Effect Index: 88
[5]
  Phytotoxicity: Nil
[6]; 0.0125 %
  Degree of growth inhibition: 3
[6]; 0.025 %
  Degree of growth inhibition: 3
[7]
  Degree of propagation: + (the area of propagation is 1-25% on the slime test boards.)
fungi
  Degree of propagation: -
Green algae
  Degree of propagation: -

## CC(C)C(=O)Oc1ccccc1C(=O)NC=C(Cl)Cl [compound 11]
[1]
  Percentage of healthy seedlings at 0.25 g/box: 68.7%
[2]
  Infected Index: 10.1
[3]
  Phytotoxicity: Nil
[9]
  pest or weed control at 1000 ppm: 100%
[8]
  pest or weed control at 500 ppm: 65.5%
[4]
  Effect Index: 81
[5]
  Phytotoxicity: Nil

## O=C(CCl)Oc1ccccc1C(=O)NC=C(Cl)Cl [compound 13]
[1]
  Percentage of healthy seedlings at 0.25 g/box: 62%
[9]
  pest or weed control at 1000 ppm: 100%
[8]
  pest or weed control at 500 ppm: 70.5%
[10]
  pest or weed control at 1000 ppm: 67.3%
Summer orange seedlings
  Phytotoxicity: Nil
[6]; 0.0125 %
  Degree of growth inhibition: 2
[6]; 0.025 %
  Degree of growth inhibition: 3
Aspergillus niger
  width of the region of growth-inhibition: 6 mm
Bacillus subtilis
  width of the region of growth-inhibition: 7 mm
Penicillium Citrinum
  width of the region of growth-inhibition: 7 mm
Staphylococcus oureus
  width of the region of growth-inhibition: 6 mm
[7]
  Degree of propagation: -
fungi
  Degree of propagation: -
Green algae
  Degree of propagation: -

## CCOC(=O)Oc1ccccc1C(=O)NC=C(Cl)Cl [compound 17]
[1]
  Percentage of healthy seedlings at 0.25 g/box: 68.3%
[9]
  pest or weed control at 1000 ppm: 85%
[8]
  pest or weed control at 500 ppm: 47.5%
[10]
  pest or weed control at 1000 ppm: 68.3%
Summer orange seedlings
  Phytotoxicity: Nil
[6]; 0.0125 %
  Degree of growth inhibition: 2
[6]; 0.025 %
  Degree of growth inhibition: 3
Aspergillus niger
  width of the region of growth-inhibition: 5 mm
Bacillus subtilis
  width of the region of growth-inhibition: 8 mm
Penicillium Citrinum
  width of the region of growth-inhibition: 6 mm
Staphylococcus oureus
  width of the region of growth-inhibition: 7 mm
[7]
  Degree of propagation: -
Green algae
  Degree of propagation: + (the area of propagation is 1-25% on the slime test boards.)
